In brackets after ≈: the same amount, converted by molar mass. Read-outs that look alike come from different tables or passages of the source.
What was measured:
human TRPV1 [1] = target: T1, human TRPV1 (Homo sapiens, UniProt Q8NER1); assay: pH-based assay, Protocol 2 (TRPV1/CHO cells, Fura-2 AM, FDSS-3000, pH 5.0-5.1); format: cell-based; settings: H2SO4 agonist, mean ± SEM, number of trials in parentheses, read-out: TRPV1 IC50 Potency, Human pH CHO (hpH-CHO)
T1 construct: using primers designed surrounding the complete hTRPV1 open reading frame; expressed in transfected cells; host or cells: CHO-K1 cells stably transfected with pcDNA3.1(-)-hVR1 plasmid
Excerpt: For Protocol 2, a Chinese Hamster Ovary cell line (CHO) that has been engineered to constitutively express human recombinant TRPV1 was used (TRPV1/CHO cells). The TRPV1/CHO cell line was generated as described below.
The resulting PCR products were purified from agarose gels using Gel Band Purification Kit (GE Healthcare Bioscience) and were subcloned into pCR-Blunt vector (Invitrogen). The cloned cDNA was fully sequenced using a fluorescent dye-terminator reagent (BigDye Terminator ver3.1 Cycle Sequencing Kit, Applied Biosystems) and ABI Prism 3100 genetic analyzer (Applied Biosystems). The pCR-Blunt vector containing the hTRPV1 cDNA was subjected to restriction digestion with EcoRI. The restriction fragment was subcloned into expression vector pcDNA3.1 (−) (Invitrogen) and named pcDNA3.1 (−)-hVR1 plasmid. The sequence of the cDNA encoding TRPV1 is available at GenBank accession number AJ277028.
CHO-K1 cells were maintained in growth medium consisting of α-MEM, 10% FBS (Hyclone), and 100 IU/mL of penicillin-100 μg/mL of streptomycin mixed solution (Nacalai Tesque, Japan) at 37° C. in an environment of humidified 95% air and 5% CO2. The cells were transfected with the pcDNA3.1 (−)-hVR1 plasmid using FuGENE6 (Roche) according to the manufacturer's protocol. 24 hr after transfection, neomycin-resistant cells were selected using 1 mg/mL G418 (Nacalai Tesque). After 2 weeks, individual colonies were picked, expanded, and screened for the expression of hTRPV1 in the capsaicin-induced Ca^2+ influx assay (see below) with a FLIPR (Molecular Devices). A clone with the largest Ca^2+ response to capsaicin was selected and re-cloned by the same procedure. The cells expressing hTRPV1 were cultured in the growth medium supplemented with 1 mg/mL G418.
TRPV1/CHO cells were seeded in the 96-well clear-bottom black-wall plate (Nunc) at densities of 1-2×10^4 cells/well and grown in 100 μL of culture medium (alpha-MEM supplemented with 10% FBS, 20 mM HEPES, 1 mg/mL geneticin and 1% antibiotic-antimycotic mixed stock solution) for 1-2 days before the experiment.
Different agonist solutions with sulfuric acid concentrations of from 15 mM to 18 mM (see FIG. 1) were prepared by diluting 1M sulfuric acid with measuring buffer. The different sulfuric acid concentrations in the agonist solutions were selected such that a 1:4 dilution would result in a final sulfuric acid concentration of between 3.0 mM to 3.6 mM, respectively, as indicated in FIG. 1.
The cells were stimulated using 3.0 mM (well number B1-6), 3.1 mM (C1-6), 3.2 mM (D1-6), 3.3 mM (E1-6), 3.4 mM (F1-6), 3.5 mM (G1-6), or 3.6 mM (H1-6) H2SO4 or pH 7.2 measuring buffer without H2SO4 (A1-6) (FIG. 2).
(1) Culture medium was removed using an 8-channel-pipette (Rainin, USA) from the 96-well plate and the wells were refilled with 100 μL of loading buffer (20 mM HEPES, 115 mM NaCl, 5.4 mM KCl, 0.8 mM MgCl2, 1.8 mM CaCl2, 13.8 mM D-glucose, 2.5 mM probenecid, pH 7.4) containing 5 μM Fura-2 AM (Dojin, Japan).
(2) The 96-well plate was incubated at 37° C. for 45 min.
(3) The loading buffer was removed from each well. The cells were subsequently washed twice with 150 μL of measuring buffer (20 mM HEPES, 115 mM NaCl, 5.4 mM KCl, 0.8 mM MgCl2, 5.0 mM CaCl2, 13.8 mM D-glucose, 0.1% BSA, pH 7.4) (no probenecid). The wells were then refilled with 80 μL of measuring buffer.
(4) After an incubation at 4° C. for 15 min, the 96-well plate was transferred to FDSS-3000 (Hamamatsu Photonics, Japan).
(5) The Fura-2 fluorescent intensity was monitored at a wavelength of 340 nm and at 380 nm, respectively, at a rate of 0.5 Hz for a total of 240 seconds.

human TRPV1 [2] = target: T1, human TRPV1; assay: Capsaicin-based assay, Protocol 2 (TRPV1/CHO cells, Fluo-4, FLIPR); format: cell-based; settings: capsaicin 100 nM final, mean ± SEM, number of trials in parentheses, read-out: TRPV1 IC50 Potency, Human Capsaicin CHO (hCAP-CHO)
In short: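 CHO cells stably transfected with human TRPV1 cDNA, kept under G418 selection, loaded with 3 μM Fluo-4 for 1 h. Calcium fluorescence followed on FLIPR after a 15 s baseline against capsaicin challenge; compounds at final 100 μM to 1.5625 μM, curves fitted over the full time course.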

Aqueous solubility = format: physicochemical; settings: aqueous solution
[3] = pH 1.2, simulated gastric fluid, read-out: aqueous solubility at pH 1.2
[4] = pH 6.8, aqueous buffer, read-out: aqueous solubility at pH 6.8

T1 sequence (Q8NER1 whole entry): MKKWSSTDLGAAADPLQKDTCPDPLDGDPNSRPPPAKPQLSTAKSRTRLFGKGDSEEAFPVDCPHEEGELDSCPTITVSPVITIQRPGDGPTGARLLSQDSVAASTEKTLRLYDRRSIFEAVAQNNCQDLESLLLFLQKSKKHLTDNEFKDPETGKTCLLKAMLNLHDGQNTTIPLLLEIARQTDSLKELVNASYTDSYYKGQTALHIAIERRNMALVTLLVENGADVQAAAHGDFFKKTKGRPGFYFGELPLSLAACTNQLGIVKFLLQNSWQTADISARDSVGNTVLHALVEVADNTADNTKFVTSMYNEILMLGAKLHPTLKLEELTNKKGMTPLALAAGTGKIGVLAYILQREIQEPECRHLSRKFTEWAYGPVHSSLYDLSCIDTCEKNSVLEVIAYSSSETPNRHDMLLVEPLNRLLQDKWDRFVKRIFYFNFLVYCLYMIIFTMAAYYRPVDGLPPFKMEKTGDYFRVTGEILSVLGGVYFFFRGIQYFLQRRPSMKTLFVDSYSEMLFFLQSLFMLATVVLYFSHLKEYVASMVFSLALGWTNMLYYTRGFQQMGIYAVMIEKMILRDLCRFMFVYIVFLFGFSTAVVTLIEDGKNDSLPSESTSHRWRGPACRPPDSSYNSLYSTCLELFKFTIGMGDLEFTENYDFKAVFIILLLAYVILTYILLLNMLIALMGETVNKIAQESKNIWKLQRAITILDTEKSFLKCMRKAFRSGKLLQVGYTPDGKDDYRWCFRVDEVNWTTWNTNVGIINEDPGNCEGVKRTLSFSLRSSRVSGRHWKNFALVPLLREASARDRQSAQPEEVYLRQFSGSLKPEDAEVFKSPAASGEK

Row | Compound | IC50 (human TRPV1 [1]) | IC50 (human TRPV1 [2]) | solubility (Aqueous solubility; [3]) | solubility (Aqueous solubility; [4])
1 | O=C(Nc1ccc(C(F)(F)F)c(Cl)c1)N1CC=C(c2ncc([C@H](O)CO)cc2F)CC1 [Compound U3] | 13.5 nM | 27.9 ± 9.9 nM | > 50 µM | 26.4 µM (≈ 12.1 µg/mL)
2 | O=C(O)Cc1cnc(C2=CCN(C(=O)Nc3ccc(C(F)(F)F)cc3)CC2)c(Cl)c1 [Compound G6] | – | > 25000 nM | > 50 µM | > 50 µM
3 | CN(C)Cc1cnc(C2=CCN(C(=O)Nc3ccc(C(F)(F)F)cc3)CC2)c(Cl)c1 [Compound H6] | – | 924 nM | > 50 µM | > 50 µM
4 | COC(=O)Cc1cnc(C2=CCN(C(=O)Nc3ccc(C(F)(F)F)cc3)CC2)c(Cl)c1 [Compound F6] | 467 nM | 864 nM | > 50 µM | 9.2 µM (≈ 4.18 µg/mL)
5 | O=C(Nc1ccc(C(F)(F)F)cc1)N1CC=C(c2ncccc2Cl)CC1 [Compound 200] | – | – | < 0.1 µM | < 0.1 µM
6 | O=C(Nc1ccc(C(F)(F)F)cc1)N1CC=C(c2ncc(CO)cc2Cl)CC1 [Compound J2] | 41.7 ± 4.4 nM | 129 ± 26 nM | > 50 µM | > 50 µM
7 | O=C(Nc1ccc(C(F)(F)F)c(F)c1)N1CCC(F)(c2ncc([C@H](O)CO)cc2F)CC1 [Compound Y3] | – | 43.9 ± 10 nM | > 50 µM | 17.4 µM (≈ 8.06 µg/mL)
8 | O=C(Nc1ccc(OC(F)(F)F)cc1)N1CC=C(c2ncc([C@H](O)CO)cc2Cl)CC1 [Compound E2] | 20.3 ± 1.7 nM | 107 ± 18.8 nM | > 50 µM | > 50 µM
9 | O=C(Nc1ccc(C(F)(F)F)cc1)N1CC=C(c2ncc([C@H](O)CO)cc2F)CC1 [Compound U1] | 14.7 ± 3.3 nM | 61.3 ± 22.5 nM | > 50 µM | > 50 µM
10 | O=C(Nc1ccc(OC(F)(F)F)cc1)N1CCC(F)(c2ncc([C@H](O)CO)cc2Cl)CC1 [Compound C1] | 11.3 ± 0.8 nM | 15.3 ± 6.9 nM | > 50 µM | 15.7 µM (≈ 7.5 µg/mL)
11 | CC(O)c1cnc(C2=CCN(C(=O)Nc3ccc(C(F)(F)F)cc3)CC2)c(Cl)c1 (centres unmarked) [Compound G2] | 84.8 ± 8.8 nM | 112 ± 22.3 nM | > 50 µM | 38.2 µM (≈ 16.3 µg/mL)
12 | O=C(Nc1ccc(C(F)(F)F)c(F)c1)N1CCC(F)(c2ncc([C@H](O)CO)cc2Cl)CC1 [Compound F1] | 9 ± 2.3 nM | 18.6 ± 6.8 nM | > 50 µM | 22.6 µM (≈ 10.8 µg/mL)
13 | CCOC(=O)c1cnc(C2=CCN(C(=O)Nc3ccc(C(F)(F)F)cc3)CC2)c(Cl)c1 [Compound F2] | 62.9 ± 8.8 nM | 108 ± 24.3 nM | 1 µM (≈ 0.454 µg/mL) | 3 µM (≈ 1.36 µg/mL)
14 | O=C(Nc1ccc(C(F)(F)F)c(F)c1)N1CC=C(c2ncc([C@H](O)CO)cc2Cl)CC1 [Compound S1, (S)-3-Chloro-5-(1,2-dihydroxy-ethyl)-3′,6′-dihydro-2′H-[2,4′]bipyridinyl-1′-carboxylic acid (3-fluoro-4-trifluoromethyl-phenyl)amide] | 16.3 ± 2 nM | 53.5 ± 16.3 nM | > 50 µM | > 50 µM
15 | O=C(Nc1ccc(C(F)(F)F)cc1)N1CCC(F)(c2ncc([C@H](O)CO)cc2F)CC1 [Compound N6] | – | – | > 50 µM | > 50 µM
16 | O=C(Nc1ccc(S(=O)(=O)C(F)(F)F)cc1)N1CCC(F)(c2ncc([C@H](O)CO)cc2Cl)CC1 [Compound H1] | – | 31.7 ± 8.9 nM | > 50 µM | > 50 µM
17 | N#CCc1cnc(C2=CCN(C(=O)Nc3ccc(C(F)(F)F)cc3)CC2)c(Cl)c1 [Compound E6, 4-(3-chloro-5-(cyanomethyl)pyridin-2-yl)-N-(4-(trifluoromethyl)phenyl)-5,6-dihydropyridine-1(2H)-carboxamide] | – | 265 nM | 27.2 µM (≈ 11.4 µg/mL) | 9 µM (≈ 3.79 µg/mL)
18 | O=C(Nc1ccc(C(F)(F)F)cc1)N1CC=C(c2ncc([C@H](O)CO)cc2Cl)CC1 [Compound Z1, (S)-3-Chloro-5-(1,2-dihydroxy-ethyl)-3′,6′-dihydro-2′H-[2,4′]bipyridinyl-1′-carboxylic acid (4-trifluoromethyl-phenyl)amide] | 11.6 ± 0.7 nM | 75.8 ± 12.4 nM | > 50 µM | > 50 µM
19 | CC(C)(O)c1cnc(C2=CCN(C(=O)Nc3ccc(C(F)(F)F)cc3)CC2)c(Cl)c1 [Compound X2] | 81.1 ± 10.5 nM | 248 ± 25.1 nM | – | –
20 | O=C(Nc1ccc(C(F)(F)F)cc1)N1CCC(F)(c2ncc([C@H](O)CO)cc2Cl)CC1 [Compound N1, (S)-4-(3-chloro-5-(1,2-dihydroxyethyl)pyridin-2-yl)-4-fluoro-N-(4-(trifluoromethyl)phenyl)piperidine-1-carboxamide] | 6.3 ± 0.8 nM | 38.7 ± 5.3 nM | > 50 µM | 28 µM (≈ 12.9 µg/mL)
21 | CC(C)(C)c1ccc(NC(=O)N2CC=C(c3ncc([C@H](O)CO)cc3Cl)CC2)cc1 [Compound I1, (S)-3-Chloro-5-(1,2-dihydroxy-ethyl)-3′,6′-dihydro-2′H-[2,4′]bipyridinyl-1′-carboxylic acid (4-tert-butyl-phenyl)amide] | 1.1 ± 0.2 nM | 33.8 ± 9.1 nM | – | –
22 | O=C(Nc1ccc(Cl)c(C(F)(F)F)c1)N1CCC(F)(c2ncc([C@H](O)CO)cc2F)CC1 [Compound E5] | 33.8 nM | 133 ± 28.5 nM | – | –
23 | O=C(Nc1ccc(C(F)(F)F)c(F)c1)N1CC=C(c2ncc([C@@H](O)CO)cc2Cl)CC1 [Compound W5] | 71.2 ± 10.5 nM | 423 ± 123 nM | – | –
24 | O=C(Nc1ccc(C(F)(F)F)cn1)N1CCC(F)(c2ncccc2Cl)CC1 [Compound 204] | 154 nM | 167 nM | – | –
